Here are results for twelve compounds from article PMC9053583, “A novel series of phenolic temozolomide (TMZ) esters with 4 to 5-fold increased potency, compared to TMZ, against glioma cells irrespective of MGMT expression” (RSC Advances, 2020).

Structures are written as SMILES. Where two headings read alike, the source gives them in different places. Where only a bound is given, the exact number is not on record here.

One data set relates to U87-MG cells. As to the kind of experiment: CellTiter-Glo cytotoxicity against U87-MG cells. Type of data set: cell-based. Conditions: Homo sapiens, U-87 MG, 144 hours incubation, IC50 ± SD (n = 3). As for the experimental part:
(§1) Apoptosis of glioma cells induced by TMZ, occurs at least 120 hours after treatment.[7] Consequently, cells were incubated for 144 hours with specified TMZ analogues in the in vitro investigations in order to obtain more reliable IC50 values.
(§2) 1321-N1 (human astrocytoma) was maintained in DMEM medium supplemented with 2 mM L-glutamine and 10% FBS. GOS-3, (human brain mixed astro-oligodendroglioma) was maintained in DMEM medium supplemented with 2 mM L-glutamine and 10% […]. U87-MG, (human glioblastoma) and SVGp12 (normal human astroglia) were maintained in EMEM medium supplemented with 2 mM L-glutamine, 1 mM sodium pyruvate and 10% FBS. All cell lines were incubated at 37 °C and 5% CO2 in a humidified incubator. Primary BTNW cultures were maintained in Ham's F10 nutrient mixture, containing 20 mM HEPES, 2 mM glutamine and 10% FBS. Primary cultures were incubated in a humidified incubator at 37 °C.
(§3) Cells were seeded in the appropriate media in each well of a Costar 96-well plate at a density of 5 × 10^2 immortalised cells; 2 × 10^3 (primary cells). The plates were incubated at 37 °C and 5% CO2 in a humidified incubator for 24 hours to allow cells to adhere. Each of the drugs tested were dissolved in DMSO to afford a 200 mM stock solution. The stock solutions were diluted with medium to afford the final working concentrations, ensuring DMSO concentration was no greater than 0.5% (v/v). Drug concentrations were added to the cells and incubated for 144 hours. After incubation, the drug concentrations were removed and replaced with 100 μL of CellTiter-Glo® and 100 μL of media. The luminescence of each well was measured on GENios Pro plate reader. The results for each of the drug concentrations were expressed as a percentage of the control wells. For cell lines, the regression equation for a polynomial line of best fit of order 2 was used to calculate the IC50. In the case of the in vitro model used in the present study, the IC50 was defined as the concentration of drug that results in a 50% reduction in oxyluciferin production. Primary culture cells were incubated with clinically relevant concentrations for 144 hours. Viability was expressed as a percentage of the control wells. Each experiment involving cell lines was carried out in triplicate of triplicates. Experiments using patient derived primary cultures were carried out in triplicate.
(§4) Initial screening of the 25 analogues was completed using the U87-MG cell line. The most promising analogues from the initial screening were taken forward and tested against the 1321-N1, GOS-3 and SVG-p12 cell lines. The results of all 4 cell lines were compiled and the analogues that were deemed to be the most promising drug candidates were tested against primary cultures at clinically relevant concentrations.
(In ATP-based viability assays light output follows the ATP content of the culture.)

A further data set deals with 1321-N1. As to the kind of experiment: CellTiter-Glo cytotoxicity against 1321-N1 cells. Type of data set: cell-based. The following applies: Homo sapiens, 144 hours incubation, IC50 ± SD (n = 3). How it is done:
as §1, §2, §3, §4

The test system of another data set is GOS-3. Put plainly: CellTiter-Glo cytotoxicity against GOS-3 cells. Type of data set: cell-based. The following applies: Homo sapiens; 144 hours incubation, IC50 ± SD (n = 3). How it is done: as §1, §2, §3, §4
Another data set concerns BTNW374 (MGMT+). As to the kind of experiment: Cell viability of patient derived primary GBM culture BTNW374 (MGMT+). Type of data set: cell-based, human. As for the experimental part: (§5) Fig. 2 (A) Cell viability of BTNW914 (MGMT−) after treatment by TMZ and phenyl TMZ ester analogues at various clinically relevant concentrations and incubation for 6 days. (B) Cell Viability of BTNW374 (MGMT+) after treatment by TMZ and phenyl TMZ ester analogues at various clinically relevant concentrations. Values are reported as the percentage of viable cells ± SD, n = 3.
(§6) Cytotoxic evaluation of the analogues was completed against 4 cell lines and 2 primary GBM cultures. The human glioma cell lines, GOS-3, U87-MG and 1321-N1 along with the human astroglial cell line, SVGp12, were purchased from The European Collection of Cell Cultures (ECCAC, UK) and Deutsche Sammlung von Mikroorganismen und Zellkulturen (DMSZ, Germany). Patient derived primary GBM cultures, BTNW374 and BTNW914, were obtained from The Brain Tumour North West Tissue Bank in collaboration with The Royal Preston Hospital. Patient data for primary cells was included as part of the ESI. ^†
as §2, §3

The test system of another data set is SVGp12. Put plainly: CellTiter-Glo cytotoxicity against normal SVGp12 cell line. The following applies: Homo sapiens, 144 hours incubation, IC50 ± SD (n = 3). It counts as cell-based. How it is done:
as §1, §2, §3, §4

The next data set deals with BTNW914 (MGMT−). Put plainly: Cell viability of patient derived primary GBM culture BTNW914 (MGMT−). Conditions: 6 days incubation; for IC50: Homo sapiens, 144 h, read-out: IC50 against MGMT devoid GBM primary cells; for reduction in viability against MGMT devoid GBM cells: at 75 μM. It counts as cell-based, human. How it is done: as §5, §6, §2, §3
Data set [1] is described as follows: Solubility in cell culture medium. Type of data set: physicochemical. As for the experimental part: The maximum concentration that could be achieved in medium for amide analogues 4a and 4c was approximately 200 μM, at which IC50 values could not be generated and were also eliminated from further studies.
as §3

The conditions of data set [2]: cited from earlier work.
[3] abbreviates: initial screening, CellTiter-Glo, read-out: IC50 against U87-MG cells.
The mark [4] stands for this setting: lead analogues (Table 2), read-out: IC50 U87-MG.

The IC50 is the concentration that gives 50% inhibition. As a reminder, the melting point is the temperature of the solid-liquid transition. On to `Cn1nnc2c(C(=O)Oc3ccc([N+](=O)[O-])cc3)ncn2c1=O` [Analogue 3i, 4-Nitrophenyl 3-methyl-4-oxo-3,4-dihydroimidazo [5,1-d][1,2,3,5] tetrazine-8-carboxylate], for which the melting point stood at 190 °C. The concentration for half-maximal inhibition (IC50) with U87-MG cells (setting [3]) was 142 ± 3 µM. Moreover, the half-inhibitory concentration (IC50) in the data set with U87-MG cells (setting [4]) stood at 141 ± 3 µM. Moreover, the concentration for half-maximal inhibition (IC50) in the data set with 1321-N1 was found to be 104 ± 4 µM. Besides, 91 ± 1 µM corresponded to half-maximal inhibition with GOS-3 (IC50). Besides, the “cytotoxicity against MGMT positive patient derived primary culture” value (from here on “cytotoxicity”) with BTNW374 (MGMT+) (human, 144 h, 75 μM) is listed as “generated cytotoxicity at 75 μM”. Besides, the IC50 in the data set on SVGp12 is 39 ± 2 µM. Moreover, in the data set on BTNW914 (MGMT−), the half-inhibitory concentration (IC50) is less than 15 µM.

Consider `Cn1nnc2c(C(=O)Oc3ccc(Cl)cc3)ncn2c1=O` [Analogue 3j, 4-Chlorophenyl 3-methyl-4-oxo-3,4-dihydroimidazo [5,1-d][1,2,3,5] tetrazine-8-carboxylate], for which the melting point was found to be 164 °C. Moreover, the IC50 in the data set on U87-MG cells (setting [3]) stood at 96 ± 3 µM. The 50% inhibitory concentration (IC50) in the data set on U87-MG cells (setting [4]) turned out to be 96 ± 3 µM. In addition, the half-inhibitory concentration (IC50) with 1321-N1 stood at 118 ± 11 µM. In the data set on GOS-3, this compound registered an IC50 of 54 ± 4 µM. Further, the “cytotoxicity” value with BTNW374 (MGMT+) (human, 144 h, 75 μM) is “generated cytotoxicity at 75 μM”. In the data set on SVGp12, this compound showed a 50% inhibitory concentration (IC50) of 33 ± 1 µM. Further, in the data set with BTNW914 (MGMT−), the half-inhibitory concentration (IC50) is less than 15 µM.

For the compound `CCCCCCOC(=O)c1ncn2c(=O)n(C)nnc12` [Analogue 3b, Hexyl 3-methyl-4-oxo-3,4-dihydroimidazo[5,1-d][1,2,3,5]tetrazine-8-carboxylate], the melting point came to 76 °C. The IC50 in the data set on U87-MG cells (setting [3]) was 409 ± 45 µM. Further, the 50% inhibitory concentration (IC50) with U87-MG cells (setting [4]) came out at 409 ± 45 µM. This compound also registered an IC50 in the data set on 1321-N1 of 269 ± 20 µM. The same compound had an IC50 in the data set with GOS-3 of 269 ± 6 µM. This compound also yielded an IC50 with SVGp12 of 182 ± 11 µM.

The compound `Cn1nnc2c(C(=O)Nc3ccc(Cl)cc3)ncn2c1=O` [Analogue 4e, N-(4-Chlorophenyl)-3-methyl-4-oxo-3,4-dihydroimidazo[5,1-d][1,2,3,5]tetrazine-8-carboxamide] displayed a melting point of 200 °C. Moreover, the “solubility in cell culture medium” value in data set [1] is on record as “insoluble”.

Regarding `Cn1nnc2c(C(N)=O)ncn2c1=O` [TMZ, 3-methyl-4-oxo-imidazo[5,1-d][1,2,3,5]tetrazine-8-carboxamide, reference compound], the IC50 in the data set on U87-MG cells (setting [3]) amounted to 696 ± 79 µM; in the data set with U87-MG cells (setting [4]) it was 621 ± 66 µM; with 1321-N1, 783 ± 40 µM; in the data set with GOS-3, 696 ± 16 µM; with SVGp12, 239 ± 6 µM. Further, the brain-tumour concentration in data set [2] is 15 µM. For the same compound, the “brain-tumour concentration as share of plasma concentration” value in data set [2] is given as “approximately 20%”. Besides, the “time frame of maximum intracranial concentration” value in data set [2] is reported as “approximately 2 ± 0.8 hours”. The “cytotoxicity” value in the data set on BTNW374 (MGMT+) (BTNW374, clinically relevant concentrations up to 75 μM) is “TMZ resistance”. In addition, the “reduction of viability of MGMT devoid cells” value in the data set with BTNW914 (MGMT−) (at 15 and 75 μM) is on record as “approximately 20%”.

Regarding `Cn1nnc2c(C(=O)Oc3ccccc3)ncn2c1=O` [Analogue 3l, Phenyl 3-methyl-4-oxo-3,4-dihydroimidazo[5,1-d][1,2,3,5]tetrazine-8-carboxylate], the melting point was found to be 149 °C. For the same compound, the half-inhibitory concentration (IC50) in the data set with U87-MG cells (setting [3]) was determined as 331 ± 47 µM. For the same compound, the half-maximal inhibitory concentration (IC50) in the data set on U87-MG cells (setting [4]) turned out to be 330 ± 47 µM. This compound also yielded an IC50 in the data set with 1321-N1 of 511 ± 10 µM. Moreover, in the data set on GOS-3, the IC50 came out at 691 ± 35 µM. In the data set with SVGp12, this compound came in with an IC50 of 238 ± 6 µM. Besides, the “reduction in viability against MGMT devoid GBM cells” value in the data set on BTNW914 (MGMT−) was “greater than 50%”.

Turning to `Cn1nnc2c(C(=O)O)ncn2c1=O` [TMZ acid, 3-methyl-4-oxo-3,4-dihydroimidazo[5,1-d][1,2,3,5]tetrazine-8-carboxylic acid], the IC50 amounted to 662 ± 42 µM in the data set on U87-MG cells (setting [3]); 662 ± 42 µM with U87-MG cells (setting [4]); 596 ± 26 µM with 1321-N1; 504 ± 30 µM with GOS-3; 316 ± 2 µM in the data set on SVGp12.

The compound `CCCCCCNC(=O)c1ncn2c(=O)n(C)nnc12` [Analogue 4a, N-Hexyl-3-methyl-4-oxo-3,4-dihydroimidazo[5,1-d][1,2,3,5]tetrazine-8-carboxamide] gave a melting point of 138 °C. The IC50 in the data set with U87-MG cells (setting [3]) was greater than 200 µM. In addition, in data set [1], the “maximum concentration that could be achieved in medium” value is recorded as “approximately 200 μM” and the “solubility in cell culture medium” value is given as “insoluble”.

In the case of `Cc1ccc(OC(=O)c2ncn3c(=O)n(C)nnc23)cc1` [Analogue 3n, p-Tolyl 3-methyl-4-oxo-3,4-dihydroimidazo[5,1-d][1,2,3,5]tetrazine-8-carboxylate], the melting point was found to be 164 °C. In the data set with U87-MG cells (setting [3]), the concentration for half-maximal inhibition (IC50) worked out at 376 ± 62 µM. Further, in the data set with U87-MG cells (setting [4]), the 50% inhibitory concentration (IC50) was 376 ± 62 µM. This compound also showed a half-maximal inhibitory concentration (IC50) in the data set on 1321-N1 of 238 ± 8 µM. Besides, it took 314 ± 38 µM to reach half-maximal inhibition with GOS-3 (IC50). Moreover, the “cytotoxicity” value in the data set on BTNW374 (MGMT+) (human, 144 h, 75 μM) was “generated cytotoxicity at 75 μM”. For the same compound, inhibition in the data set on SVGp12 was half-maximal at 215 ± 26 µM (IC50). For the same compound, in the data set on BTNW914 (MGMT−), the “reduction in viability against MGMT devoid GBM cells” value is given as “greater than 50%”.

Take `COc1ccccc1NC(=O)c1ncn2c(=O)n(C)nnc12` [Analogue 4h, N-(2-Methoxyphenyl)-3-methyl-4-oxo-3,4-dihydroimidazo[5,1-d][1,2,3,5]tetrazine-8-carboxamide]: the melting point was determined as 193 °C. Moreover, in data set [1], the “solubility in cell culture medium” value is given as “insoluble”.

Regarding `Cn1nnc2c(C(=O)Nc3ccccc3)ncn2c1=O` [Analogue 4c, 3-Methyl-4-oxo-N-phenyl-3,4-dihydroimidazo[5,1-d][1,2,3,5]tetrazine-8-carboxamide], the melting point was determined as 189 °C. Besides, in the data set with U87-MG cells (setting [3]), the IC50 was greater than 200 µM. In [1], the “maximum concentration that could be achieved in medium” value is reported as “approximately 200 μM” and the “solubility in cell culture medium” value was “insoluble”.

Compound `Cn1nnc2c(C(=O)NCc3ccc(Cl)cc3)ncn2c1=O` [Analogue 4k, N-(4-Chlorobenzyl)-3-methyl-4-oxo-3,4-dihydroimidazo[5,1-d][1,2,3,5]tetrazine-8-carboxamide] gave a melting point of 148 °C. In addition, the half-inhibitory concentration (IC50) in the data set on U87-MG cells (setting [4]) came to 138 ± 28 µM. The compound also had a half-inhibitory concentration (IC50) in the data set on 1321-N1 greater than 200 µM. For the same compound, in data set [1], the “solubility in cell culture medium” value is “insoluble”. The IC50 in the data set on GOS-3 was greater than 200 µM. In the data set with SVGp12, the midpoint of inhibition, the IC50, lay at 79 ± 6 µM.
